Values of other authors in patent US20260232560A1, “SKIN HEALTH BENEFITTING COMPOSITIONS” (priority 2023, published 2026).

Assays:
[1] = poor solubility and permeability
[2] = background statement

| Structure (SMILES) | BCS class [1] | antioxidant power relative to grape seed extract [2] |
| --- | --- | --- |
| O=c1oc2c(O)c(O)cc3c(=O)oc4c(O)c(O)cc1c4c23 [Ellagic acid] | BCS Class IV |  |
| CCCC\C=C/C=C/C=C\CCCCCCCC(=O)O [Punicic acid] |  | approximately 10 times |
